Test results taken from article PMC8619001, “Discovery of New Ginsenol-Like Compounds with High Antiviral Activity” (Molecules, 2021).

Legend:
HSV-1 = system: HSV-1; design: method as in PMID 20008902; settings: HSV-1, Figure 1; cited from earlier work
[1] = system: influenza virus A/Puerto Rico/8/34 (H1N1); assay: organism not typed; type: cell-based; settings: for IC50: MDCK, 72 h, read-out: IC50 H1N1
in vitro = settings: dog
[2] = target: viral hemagglutinin (HA) of influenza virus A/Puerto Rico/8/34 (H1N1) (Influenza A virus, UniProt P03452); type: biochemical
viral hemagglutinin (HA) of influenza virus A/Puerto Rico/8/34 (H1N1), sequence (P03452 18-343 limits assumed): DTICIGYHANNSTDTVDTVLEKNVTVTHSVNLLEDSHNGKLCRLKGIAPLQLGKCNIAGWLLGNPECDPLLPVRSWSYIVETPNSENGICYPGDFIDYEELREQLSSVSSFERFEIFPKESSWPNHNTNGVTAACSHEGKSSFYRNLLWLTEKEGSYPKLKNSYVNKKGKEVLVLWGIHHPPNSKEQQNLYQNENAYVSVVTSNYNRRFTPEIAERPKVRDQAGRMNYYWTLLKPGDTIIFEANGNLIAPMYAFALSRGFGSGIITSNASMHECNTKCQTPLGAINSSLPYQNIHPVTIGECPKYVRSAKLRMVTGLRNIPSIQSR
viral hemagglutinin (HA) of influenza virus A/Puerto Rico/8/34 (H1N1), sequence (P03452 344-565 limits assumed): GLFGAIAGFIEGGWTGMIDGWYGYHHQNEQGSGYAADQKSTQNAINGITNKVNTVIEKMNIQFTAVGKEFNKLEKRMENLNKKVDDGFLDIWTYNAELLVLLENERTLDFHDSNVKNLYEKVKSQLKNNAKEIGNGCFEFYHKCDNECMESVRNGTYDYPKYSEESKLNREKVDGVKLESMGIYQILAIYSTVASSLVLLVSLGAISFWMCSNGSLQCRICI

[3] = system: B/Florida/4/2006 (Yamagata-like); assay: microbe, parasite or virus in culture; type: cell-based, influenza virus B/Florida/4/2006 (Yamagata-like); settings: Influenza B virus, MDCK, 72 h, read-out: IC50 H1N1
[4] = system: HA of influenza viruses A of H3, H5, and H7 subtypes and influenza virus B; type: biochemical; settings: pH 5
[5] = system: HA of A/Vladivostok/2/2009 (H1N1); type: biochemical, influenza virus A/Vladivostok/2/2009 (H1N1); settings: pH 5
[6] = system: A/California/7/2009 (H1N1) pdm09; assay: microbe, parasite or virus in culture; type: cell-based, influenza virus A/California/07/09 (H1N1)pdm09; settings: Influenza A virus, H1N1, MDCK, 72 h, read-out: IC50 H1N1
[7] = system: influenza virus A/Puerto Rico/8/34 (H1N1); type: cell-based
[8] = system: A/Mallard/Pennsylvania/1984 (H5N2); assay: microbe, parasite or virus in culture; type: cell-based, influenza virus A/mallard/Pennsylvania/10218/84 (H5N2); settings: Influenza A virus, H1N1 / H5N2, MDCK, in Anas platyrhynchos, 72 h, read-out: IC50 H1N1
[9] = system: influenza virus A/Puerto Rico/8/1934 (H1N1); assay: organism not typed; type: cell-based, influenza virus A/Puerto Rico/8/34 (H1N1); settings: MDCK, 24 h, read-out: IC50 (virus yield reduction)
A/Aichi/2/1968 (H3N2) = assay: microbe, parasite or virus in culture; type: cell-based, influenza virus A/Aichi/2/68 (H3N2); settings: Influenza A virus, H1N1 / H3N2, MDCK, 72 h, read-out: IC50 H1N1
A/Anhui/1/2013 (H7N9) = assay: microbe, parasite or virus in culture; type: cell-based, influenza virus A/Anhui/1/2013 (H7N9); settings: Influenza A virus, H1N1 / H7N9, MDCK, 72 h, read-out: IC50 H1N1
HA of A/Puerto Rico/8/34 = HA of A/Puerto Rico/8/34 (Influenza A virus, UniProt P03452); type: biochemical, influenza virus A/Puerto Rico/8/34 (H1N1); settings: pH 5
HA of A/Puerto Rico/8/34, sequence (P03452 18-343 limits assumed): as the sequence (P03452 18-343 limits assumed) above
HA of A/Puerto Rico/8/34, sequence (P03452 344-565 limits assumed): as the sequence (P03452 344-565 limits assumed) above

[10] = In vivo toxicity study (LD50)
[11] = system: HA of A/California/7/2009 (H1N1); type: biochemical, influenza virus A/California/07/09 (H1N1)pdm09; settings: pH 5
[12] = system: influenza virus A/Leningrad/134/17/1957 (H2N2); settings: cited from earlier work

SMILES	IC50 [1] [µM]	CC50 (in vitro) [µM]	SI [1]	further results
C=C1CC/C=C(\C)CC[C@@H]2[C@@H]1CC2(C)C [Caryophyllene]	–	–	–	SI (HSV-1): 140
CCOC(=O)C1=C[C@@H](OC(CC)CC)[C@H](NC(C)=O)[C@@H](N)C1 [Oseltamivir, reference compound]	0.31 ± 0.04	> 200	–	–
CCC(=O)NC12CC(C)(C)C3CCC1(C)CCCC32C (stereo not drawn) [Compound 1b, N-(2,2,4,7a-tetramethyloctahydro-3aH-1,4-ethanoinden-3a-yl)propionamide]	0.144 ± 0.019	128 ± 9.4	890	melting point: 103 °C
CC1(C)CC2(N)C3(C)CCCC2(C)C1CC3.Cl (stereo not drawn) [Compound 2, 2,2,4,7a-tetramethyloctahydro-3aH-1,4-ethanoinden-3a-amine hydrochloride]	0.45 ± 0.06	15.4 ± 1.2	34	melting point: 257.8 to 261.3 °C
CC(C)=CCC/C(C)=C/CC/C(C)=C/CO [Farnesol]	–	–	–	SI (HSV-1): 11
C=C1CCC2OC2(C)CCC2C1CC2(C)C (stereo not drawn) [beta-Caryophyllene oxide]	–	–	–	SI (HSV-1): 25
CC(=O)NC12CC(C)(C)C3CCC1(C)CCCC32C [Compound 1a, (1S,3aR,4R,7aS)-N-(2,2,4,7a-tetramethyloctahydro-1,4-etanoinden-3a-yl)-acetamide]	0.152 ± 0.03	> 1140	–	Effect on the hemagglutinating titre of the virus [2]: did not change the hemagglutinating titre of the virus; IC50 [3]: 1130 ± 141 µM; Inhibition of fusogenic activity of viral HA [4]: did not decrease their fusogenic activity, or this effect was observed only at the highest concentrations; Inhibition of fusogenic activity of viral HA [5]: highest activity; IC50 [6]: 10.7 ± 1.3 µM; Period of presence in the culture medium giving the most pronounced effect [7]: 0 to 2 h post-infection (hpi); IC50 [8]: 133 ± 15.6 µM; IC50 [9]: 0.15 µM; IC50 (A/Aichi/2/1968 (H3N2)): 789 ± 82 µM; IC50 (A/Anhui/1/2013 (H7N9)): 126 ± 11.8 µM; Inhibition of fusogenic activity of viral HA (HA of A/Puerto Rico/8/34): highest activity; LD50 [10]: > 5000 mg/kg; Inhibition of fusogenic activity of viral HA [11]: less sensitive
CC(N)C12CC3CC(CC(C3)C1)C2 (stereo not drawn) [Rimantadine, reference compound]	67 ± 4.9	335 ± 27	5	–
CC(C)C(=O)NC12CC(C)(C)C3CCC1(C)CCCC32C (stereo not drawn) [Compound 1c, N-(2,2,4,7a-tetramethyloctahydro-3aH-1,4-ethanoinden-3a-yl)isobutyramide]	0.21 ± 0.029	> 1030	5000	melting point: 103 °C
NC(=O)c1ncn([C@@H]2O[C@H](CO)[C@@H](O)[C@H]2O)n1 [Ribavirin, reference compound]	24.6 ± 3.7	–	>81	CC50 at 72 h (in vitro): > 2000 µM
C[C@H]1CC[C@@]2(O)C(C)(C)[C@@H]3CC[C@@]2(C)[C@H]1C3 [Patchouli alcohol]	–	–	–	SI [12]: 4.9
CC(=S)NC12CC(C)(C)C3CCC1(C)CCCC32C (stereo not drawn) [Compound 3, N-(2,2,4,7a-tetramethyloctahydro-3aH-1,4-ethanoinden-3a-yl)ethanethioamide]	1.13 ± 0.19	> 1130	1000	–
CC1(C)CC2(NC(=O)c3ccccc3)C3(C)CCCC2(C)C1CC3 (stereo not drawn) [Compound 1d, N-(2,2,4,7a-tetramethyloctahydro-3aH-1,4-ethanoinden-3a-yl)benzamide]	9.2 ± 1.1	141 ± 11.5	15	–
